From patent US20250179077A1, “QUINAZOLINE COMPOUNDS AND USES THEREOF AS INHIBITORS OF MUTANT KRAS PROTEINS” (AMGEN INC., priority 2022, published 2025)
Where two headings read alike, the source gives them in different places.

Tests used:
[1] = molecular target: GDP-bound KRAS protein (aa 1-169), containing both G12D and C118A amino acid substitutions (Homo sapiens, UniProt P01116, C118A/G12D); assay: KRAS G12D Coupled Nucleotide Exchange Assay; format: biochemical
Experimental: KRAS G12D Coupled Nucleotide Exchange Assay
Following compound pre-incubation, purified SOS protein (aa 564-1049) and GTP (Roche 10106399001) were added to the assay wells and incubated for an additional 30 min. […] The assay plates were then read on a PerkinElmer EnVision Multilabel Reader, using AlphaScreen® technology, and data were analyzed using a 4-parameter logistic model to calculate IC50 values.

[2] = molecular target: His-tagged KRAS G12D protein (Homo sapiens, UniProt P01116, G12D); assay: KRAS G12D TR-FRET Assay; format: binding
Procedure, shortened: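 His-KRAS G12D (20 nM) was preincubated with titrated compound for 30 min at RT in HEPES pH 7.4 buffer with MgCl2, 10 μM GDP. Biotin-KRPep-2d (20 nM) was then added for 1 h, followed by Eu-anti-His/streptavidin-d2 for 1 h. The 665/615 nm TR-FRET ratio was fitted 4-parameter to give IC50.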

[3] = tested on: Phosphorylation of ERK1/2 in AsPC-1 cells; assay: Phospho-ERK1/2 MSD Assay; format: cell-based; conditions: Homo sapiens
Procedure, shortened: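 Phospho-ERK1/2 was quantified by MSD whole-cell lysate immunoassay in RIPA lysates made with protease/phosphatase inhibitors. A 4-parameter logistic model gave IC50.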

[4] = ASPC1, 2 h, read-out: 2 h p-ERK (AsPC-1 cells), IC50, AsPC-1 cells, 2 h compound treatment

His-tagged KRAS G12D protein, sequence (P01116 1-188 isoform P01116-2 G12D): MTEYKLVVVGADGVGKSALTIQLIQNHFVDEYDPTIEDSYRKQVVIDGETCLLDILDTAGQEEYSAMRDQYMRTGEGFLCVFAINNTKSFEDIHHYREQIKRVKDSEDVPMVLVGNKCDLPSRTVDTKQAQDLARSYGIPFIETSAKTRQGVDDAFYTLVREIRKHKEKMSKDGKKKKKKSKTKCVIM
GDP-bound KRAS protein (aa 1-169), containing both G12D and C118A amino acid substitutions, sequence (P01116 1-169 isoform P01116-2 G12D/C118A): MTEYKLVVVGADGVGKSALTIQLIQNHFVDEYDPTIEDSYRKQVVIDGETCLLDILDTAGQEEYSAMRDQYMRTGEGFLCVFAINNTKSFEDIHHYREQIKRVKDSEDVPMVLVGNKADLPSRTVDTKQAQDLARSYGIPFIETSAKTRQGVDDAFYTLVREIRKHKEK

IC50 [1] | IC50 [2] | IC50 [3, 4] | Structure (SMILES) | IC50 ([3]; ASPC1, read-out: 2 h p-ERK (AsPC-1 cells), IC50, AsPC-1 cells, 2 h compound treatment)
7 nM | 7 nM | 85 nM | CCc1c(F)ccc2cccc(-c3ccc4c(N5CCCC6(CNC(=O)O6)C5)nc(OC[C@@]56CCCN5C[C@H](F)C6)nc4c3F)c12 (stereo partly drawn) [Example 85, 7-(7-(8-Ethyl-7-fluoronaphthalen-1-yl)-8-fluoro-2-(((2R,7aS)-2-fluorotetrahydro-1H-pyrrolizin-7a(5H)-yl)methoxy)quinazolin-4-yl)-1-oxa-3,7-diazaspiro[4.5]decan-2-one] | 
3 nM | 5 nM | 55 nM | CCc1c(F)ccc2cc(O)cc(-c3ccc4c(N5CCC[C@]6(C5)C[C@@H](O)C6)nc(OC[C@@]56CCCN5C[C@H](F)C6)nc4c3F)c12 [Example 87, (2S,4s)-6-(7-(8-Ethyl-7-fluoro-3-hydroxynaphthalen-1-yl)-6,8-difluoro-2-(((2R,7a.S)-2-fluorotetrahydro-1H-pyrrolizin-7a(5H)-yl)methoxy)quinazolin-4-yl)-6-azaspiro[3.5]nonan-2-ol] | 
5 nM | 7 nM | 28 nM | CCc1c(F)ccc2cc(O)cc(-c3c(F)cc4c(N5CCCC6(CCC(=O)O6)C5)nc(OC[C@@]56CCCN5C[C@H](F)C6)nc4c3F)c12 (stereo partly drawn) [Example 92, 7-(7-(8-Ethyl-7-fluoro-3-hydroxynaphthalen-1-yl)-6,8-difluoro-2-(((2R,7aS)-2-fluorotetrahydro-1H-pyrrolizin-7a(5H)-yl)methoxy)quinazolin-4-yl)-1-oxa-7-azaspiro[4.5]decan-2-one] | 
9 nM | 12 nM | 180 nM | CCC1CCCc2cc(O)cc(-c3ccc4c(N5CCC[C@@](C)(O)C5)nc(OC[C@@]56CCCN5C[C@H](F)C6)nc4c3F)c21 (stereo partly drawn) [Example 95, (3R)-1-(7-(8-Ethyl-3-hydroxy-5,6,7,8-tetrahydronaphthalen-1-yl)-8-fluoro-2-(((2R,7aS)-2-fluorotetrahydro-1H-pyrrolizin-7a(5H)-yl)methoxy)quinazolin-4-yl)-3-methylpiperidin-3-ol] | 
6 nM | 10 nM | 87 nM | CC1CCCc2cc(O)cc(-c3ccc4c(N5CCC[C@@](C)(O)C5)nc(OC[C@@]56CCCN5C[C@H](F)C6)nc4c3F)c21 (stereo partly drawn) [Example 96, (3R)-1-(8-Fluoro-2-(((2R,7aS)-2-fluorotetrahydro-1H-pyrrolizin-7a(5H)-yl)methoxy)-7-(3-hydroxy-8-methyl-5,6,7,8-tetrahydronaphthalen-1-yl)quinazolin-4-yl)-3-methylpiperidin-3-ol] | 
5 nM | 7 nM | 27 nM | C/C=C\c1c(Cl)cc2[nH]ncc2c1-c1c(F)cc2c(N3CCOC[C@@](C)(O)C3)nc(OC[C@@]34CCCN3C[C@H](F)C4)nc2c1F [Example 103, (6S)-4-(7-(6-Chloro-5-((Z)-prop-1-en-1-yl)-1H-indazol-4-yl)-6,8-difluoro-2-(((2R,7aS)-2-fluorotetrahydro-1H-pyrrolizin-7a(5H)-yl)methoxy)quinazolin-4-yl)-6-methyl-1,4-oxazepan-6-ol] | 
3 nM | 3 nM | 32 nM | C/C=C\c1c(Cl)cc2[nH]ncc2c1-c1ccc2c(N3CCOC[C@@](C)(O)C3)nc(OC[C@@]34CCCN3C[C@H](F)C4)nc2c1F [Example 105, (6S)-4-(7-(6-Chloro-5-((Z)-prop-1-en-1-yl)-1H-indazol-4-yl)-8-fluoro-2-(((2R,7aS)-2-fluorotetrahydro-1H-pyrrolizin-7a(5H)-yl)methoxy)quinazolin-4-yl)-6-methyl-1,4-oxazepan-6-ol] | 
4 nM | 7 nM | 87 nM | C/C=C\c1c(C)cc2[nH]ncc2c1-c1ccc2c(N3CCOC[C@@](C)(O)C3)nc(OC[C@@]34CCCN3C[C@H](F)C4)nc2c1F [Example 106, (6S)-4-(8-Fluoro-2-(((2R,7aS)-2-fluorotetrahydro-1H-pyrrolizin-7a(5H)-yl)methoxy)-7-(6-methyl-5-((Z)-prop-1-en-1-yl)-1H-indazol-4-yl)quinazolin-4-yl)-6-methyl-1,4-oxazepan-6-ol] | 
3 nM | 4 nM | 115 nM | C/C=C\c1c(Cl)cc2[nH]ncc2c1-c1ccc2c(N3CCC[C@@](C)(O)C3)nc(OC[C@@]34CCCN3C[C@H](F)C4)nc2c1F [Example 108, (3R)-1-(7-(6-Chloro-5-((Z)-prop-1-en-1-yl)-1H-indazol-4-yl)-8-fluoro-2-(((2R,7aS)-2-fluorotetrahydro-1H-pyrrolizin-7a(5H)-yl)methoxy)quinazolin-4-yl)-3-methylpiperidin-3-ol] | 
9 nM | 8 nM | 247 nM | C/C=C\c1c(Cl)cc2[nH]ncc2c1-c1ccc2c(N3CCC[C@@](C)(O)C3)nc(OCC3(CN(C)C)CC3)nc2c1F [Example 115, (3R)-1-(7-(6-Chloro-5-((Z)-prop-1-en-1-yl)-1H-indazol-4-yl)-2-((1-((dimethylamino)methyl)cyclopropyl)methoxy)-8-fluoroquinazolin-4-yl)-3-methylpiperidin-3-ol] | 
2 nM | 3 nM | 59 nM | C/C=C\c1c(Cl)cc2[nH]ncc2c1-c1ccc2c(N3CCC[C@]4(CCO4)C3)nc(OC[C@@]34CCCN3C[C@H](F)C4)nc2c1F [Example 116, (4S)-6-(7-(6-Chloro-5-((Z)-prop-1-en-1-yl)-1H-indazol-4-yl)-8-fluoro-2-(((2R,7aS)-2-fluorotetrahydro-1H-pyrrolizin-7a(5H)-yl)methoxy)quinazolin-4-yl)-1-oxa-6-azaspiro[3.5]nonane] | 
2 nM | 3 nM | 74 nM | C/C=C\c1c(Cl)cc2[nH]ncc2c1-c1ccc2c(N3CCCC4(CNC(=O)O4)C3)nc(OC[C@@]34CCCN3C[C@H](F)C4)nc2c1F (stereo partly drawn) [Example 117, 7-(7-(6-Chloro-5-((Z)-prop-1-en-1-yl)-1H-indazol-4-yl)-8-fluoro-2-(((2R,7aS)-2-fluorotetrahydro-1H-pyrrolizin-7a(5H)-yl)methoxy)quinazolin-4-yl)-1-oxa-3,7-diazaspiro[4.5]decan-2-one] | 

Structure (SMILES) | IC50 [1] | IC50 [2] | IC50 [3, 4] | IC50 ([3]; ASPC1, read-out: 2 h p-ERK (AsPC-1 cells), IC50, AsPC-1 cells, 2 h compound treatment)
C/C=C\c1c(Cl)cc2[nH]ncc2c1-c1c(F)cc2c(N3CCC[C@@](C)(O)C3)nc(OC[C@@]34CCCN3C[C@H](F)C4)nc2c1F [Example 119, (3R)-1-(7-(6-Chloro-5-((Z)-prop-1-en-1-yl)-1H-indazol-4-yl)-6,8-difluoro-2-(((2R,7aS)-2-fluorotetrahydro-1H-pyrrolizin-7a(5H)-yl)methoxy)quinazolin-4-yl)-3-methylpiperidin-3-ol] | 11 nM | 16 nM |  | 111 nM
